Changes are numbered by the printed parent chain.

What all share (assay type): cell-based
Assay [1] has as its target T1, rat P2X4R (P2X4 receptor) (Rattus norvegicus, UniProt P51577).
T1 construct: gene P2rx4; full-length cDNA in pcDNA3, cRNA expressed in Xenopus laevis oocytes; homomeric trimer; ~60 kDa band
T1 sequence (P51577 1-388): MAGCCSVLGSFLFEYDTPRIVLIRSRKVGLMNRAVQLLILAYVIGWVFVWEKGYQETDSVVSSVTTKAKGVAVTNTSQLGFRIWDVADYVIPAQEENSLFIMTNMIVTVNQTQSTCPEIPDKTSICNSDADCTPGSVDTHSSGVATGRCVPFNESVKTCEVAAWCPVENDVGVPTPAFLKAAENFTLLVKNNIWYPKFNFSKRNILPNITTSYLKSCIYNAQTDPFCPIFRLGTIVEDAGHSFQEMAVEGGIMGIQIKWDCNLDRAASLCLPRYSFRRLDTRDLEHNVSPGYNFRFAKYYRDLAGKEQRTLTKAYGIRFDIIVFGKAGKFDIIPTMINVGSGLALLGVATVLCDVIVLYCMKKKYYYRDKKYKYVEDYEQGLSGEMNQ
The assay is described as follows: two-electrode voltage clamp, Xenopus oocytes, inhibition of ATP-gated current. The settings on record: read-out: % inhibition at 100 mM. Background: Two-electrode voltage clamp holds a large cell at a set potential and records current.

Assay [2] addresses T2, rat P2X4R (P2X4 receptor) (Rattus norvegicus, UniProt P51577, F48A).
T2 construct: gene P2rx4; full-length cDNA in pcDNA3, cRNA expressed in Xenopus laevis oocytes; homomeric trimer; ~60 kDa band
T2 sequence (P51577 1-388 F48A): T1 sequence (P51577 1-388) with F48A
The assay is described as follows: two-electrode voltage clamp, Xenopus oocytes, ATP-gated current. The text has this: (§1) two-electrode voltage clamp, Xenopus oocytes, ATP-gated current on rat P2X4R (P2X4 receptor)

Assay [3] has as its target T3, rat P2X4R (P2X4 receptor) (Rattus norvegicus, UniProt P51577, L37A).
T3 construct: gene P2rx4; full-length cDNA in pcDNA3, cRNA expressed in Xenopus laevis oocytes; homomeric trimer; ~60 kDa band
T3 sequence (P51577 1-388 L37A): T1 sequence (P51577 1-388) with L37A
The assay is described as above.
From the text: as §1

Assay [4] deals with T4, rat P2X4R (P2X4 receptor) (Rattus norvegicus, UniProt P51577, V49L).
T4 construct: gene P2rx4; full-length cDNA in pcDNA3, cRNA expressed in Xenopus laevis oocytes; homomeric trimer; ~60 kDa band
T4 sequence (P51577 1-388 V49L): T1 sequence (P51577 1-388) with V49L
The assay is described as above.
From the text: as §1

Assay [5] addresses T5, rat P2X4R (P2X4 receptor) (Rattus norvegicus, UniProt P51577, R33L).
T5 construct: gene P2rx4; full-length cDNA in pcDNA3, cRNA expressed in Xenopus laevis oocytes; homomeric trimer; ~60 kDa band
T5 sequence (P51577 1-388 R33L): T1 sequence (P51577 1-388) with R33L
Described as above.
From the text: as §1

The target in assay [6] is T6, rat P2X4R (P2X4 receptor) (Rattus norvegicus, UniProt P51577, R33A).
T6 construct: gene P2rx4; full-length cDNA in pcDNA3, cRNA expressed in Xenopus laevis oocytes; homomeric trimer; ~60 kDa band
T6 sequence (P51577 1-388 R33A): T1 sequence (P51577 1-388) with R33A
The assay is described as above.
From the text: as §1

Assay [7] has as its target T7, rat P2X4R (P2X4 receptor) (Rattus norvegicus, UniProt P51577, W46A).
T7 construct: gene P2rx4; full-length cDNA in pcDNA3, cRNA expressed in Xenopus laevis oocytes; homomeric trimer; ~60 kDa band
T7 sequence (P51577 1-388 W46A): T1 sequence (P51577 1-388) with W46A
The assay is described as above.
From the text: as §1

Assay [8] has as its target T8, rat P2X4R (P2X4 receptor) (Rattus norvegicus, UniProt P51577, V49G).
T8 construct: gene P2rx4; full-length cDNA in pcDNA3, cRNA expressed in Xenopus laevis oocytes; homomeric trimer; ~60 kDa band
T8 sequence (P51577 1-388 V49G): T1 sequence (P51577 1-388) with V49G
Described as above.
From the text: as §1

The target in assay [9] is T9, rat P2X4R (P2X4 receptor) (Rattus norvegicus, UniProt P51577, A34W).
T9 construct: gene P2rx4; full-length cDNA in pcDNA3, cRNA expressed in Xenopus laevis oocytes; homomeric trimer; ~60 kDa band
T9 sequence (P51577 1-388 A34W): T1 sequence (P51577 1-388) with A34W
The description is as above.
From the text: as §1

Assay [10] concerns the target T10, rat P2X4R (P2X4 receptor) (Rattus norvegicus, UniProt P51577, R33S).
T10 construct: gene P2rx4; full-length cDNA in pcDNA3, cRNA expressed in Xenopus laevis oocytes; homomeric trimer; ~60 kDa band
T10 sequence (P51577 1-388 R33S): T1 sequence (P51577 1-388) with R33S
The assay is described as above.
From the text: as §1

Assay [11] deals with T1, rat P2X4R (P2X4 receptor). The assay is described as above.
From the text: as §1

Assay [12] addresses T11, rat P2X4R (P2X4 receptor) (Rattus norvegicus, UniProt P51577, R33K).
T11 construct: gene P2rx4; full-length cDNA in pcDNA3, cRNA expressed in Xenopus laevis oocytes; homomeric trimer; ~60 kDa band
T11 sequence (P51577 1-388 R33K): T1 sequence (P51577 1-388) with R33K
The assay is described as above.
From the text: as §1

On to `CCO` [ethanol], for which the inhibition at 100000 µM in [1] came out at 44 ± 4%.

`Nc1ncnc2c1ncn2[C@@H]1O[C@H](COP(=O)(O)OP(=O)(O)OP(=O)(O)O)[C@@H](O)[C@H]1O` [ATP]: the concentration giving a half-maximal response (EC50) in assay [2] is 3.53 ± 0.73 µM; in [3] it was 8.91 ± 0.84 µM; in assay [4], 10.6 ± 1.3 µM; in assay [5], 5.06 ± 0.7 µM; in assay [6], 7.04 ± 0.51 µM; in assay [7], 3.58 ± 0.57 µM. Besides, the concentration for a half-maximal effect (EC50) in assay [8] stood at 9.6 ± 0.9 µM; in assay [9], 6.5 ± 1.02 µM; in [10] it was 4.94 ± 1.09 µM; in [11] it was 5.74 ± 0.45 µM; in assay [12] it was 6.33 ± 0.93 µM.

As usually defined, the inhibition is the share of the control response that was lost under treatment. A word on the EC50: it is the concentration needed to bring the measured effect to its halfway point. Lower therefore signals higher potency in that assay.

The values are drawn from article PMC7178174, “Residues in Transmembrane Segments of the P2X4 Receptor Contribute to Channel Function and Ethanol Sensitivity” (International Journal of Molecular Sciences, 2020).
